A short description of series [1]: acetic acid-induced writhing test (analgesic effect). In kind it is in vivo, KTC-ICR rats. The settings on record: Mus musculus. The method, then: (§1) The physiological activities of the compounds of the present invention prepared according to Example 1 to 6 were measured by employing acetic acid or phenyl-1,4-benzoquinone (PBQ) induced writhing test method.
(§2) In case of the acetic acid-induced writhing test, KTC-ICR […] (available from animal laboratory of Korea Research Institute of Chemical Technology) each having a body weight of 20-25 g were used, while in the PBQ induced writhing test, KTC-ICR […] each having a body weight of 14-18 g were employed. A group consisting of 8 mice which had been adjusted to the testing environment for a week were used in determining the effects of each dosage of a test compound. Water and food were given frelly and illumination was maintained on a 12-hour cycle.
(§3) Test solutions were prepared by dissolving one of the final products obtained in Examples 1 to 6 in distilled water containing 1% of Tween and 5% ethanol in a pre-determined concentration. The test solutions were used after serial dilution depending on each dosage.
(§4) The test solutions were […] administered in a dose of 0.1 ml per 10 g of a body weight. 0.1 ml of 1% acetic acid solution or 0.1 ml of 0.02% PBQ solution was administered […] or after 30 minutes in case of subcutaneous injection.
(§5) Then, the number of writhings generated during a period of 10 minutes after 3 minutes from the administration of acetic acid was measured. in case of the administration of PBQ, the number of writhings generated during a period of 5 minutes after 5 minutes from the administration was measured.
(§6) For a comparison purpose, initially, distilled water containing 1% of Tween and 5% ethanol alone was administered to the control group. Then, the control groups were subjeted the same procedure as the test groups.
(§7) The number of writhings suffered by the test group was compared with that of the control group; and the analgesic effect was measured in terms of the percentage of inhibition of writhing (I.W.). [formula] wherein: A is the number of writhings suffered by the control group; and
(§8) B is the number of writhings suffered by the test group.
(§9) I.W. values for each dosage were calculated by employing regression analysis. The amount of a test compound which is required in reducing the frequency of writhings to the 50% level of that generated by the control group, i.e., B=0.5A or I.W.=50%, is designated as ED50 (mg/kg of a body weight). Therefore, a lower value of ED50 represents a higher analgesic effect of the tested compound.
Background: An intraperitoneal irritant provokes the stretching counted in writhing tests.

A short description of series [2]: Toxicity test: behavioral changes in the test animals. In kind it is in vivo. Conditions: score; for Convulsion / Salivation / Urination: normal value 0; for Dyspnoea / Ptosis / Sedation / Vasodilation: normal value 4.
Series [3] in a line: phenyl-1,4-benzoquinone (PBQ) induced writhing test (analgesic effect). In kind it is in vivo, KTC-ICR rats. The settings on record: Mus musculus. The method, then:
as §1, §2, §3, §4, §5, §6, §7, §8, §9

Where [4] appears, read: acetic acid, dose reducing writhing to 50% of control, read-out: ED50.
[5] abbreviates: PBQ, dose reducing writhing to 50% of control, read-out: ED50.

The source of these data is patent publication US5973201A, “Phenylacetamide derivatives” (Korea Research Institute of Chemical Technology, priority 1995, dated 1999).

One may read the ED50 as the dose that gives a 50% effect, or the effect in half of the subjects. As to `COc1cc(CC(=O)NCCSc2ccc(C)cc2)ccc1OCCN` [Example 5, N-{2-(4-methylthiophenoxy)ethyl}-4-(2-aminoethoxy)-3-methoxyphenylacetamide], in series [1] (setting [4]), the median effective dose (ED50) amounted to 0.84 mg/kg. In series [2] (0.63 mg/kg), this compound registered a Convulsion of 0, a Salivation of 0, a Urination of 0 and a Dyspnoea of 4. In series [2] (0.63 mg/kg), this compound had a Ptosis of 4, a Sedation of 4 and a Vasodilation of 4. In series [2] (1.25 mg/kg), this compound yielded a Convulsion of 0, a Salivation of 0, a Urination of 0 and a Dyspnoea of 6. In series [2] (1.25 mg/kg), the Ptosis is 6, the Sedation is listed as 6 and the Vasodilation was determined as 4. In series [2] (2.5 mg/kg), this compound came in with a Convulsion of 0, a Salivation of 0, a Urination of 0 and a Dyspnoea of 6. Further, in series [2] (2.5 mg/kg), the Ptosis came out at 6, the Sedation was determined as 7 and the Vasodilation was 5.
With `CC(=O)Oc1ccccc1C(=O)O` [Aspirin, acetylsalicylic acid], the 50% effect level in series [3] (ED50) was put at a dose of 71.4 mg/kg.
For `COc1cc(CC(=O)NCCOCc2ccc(C)c(C)c2)ccc1O` [Example 4, N-{2-(3,4-dimethylbenzyloxy)ethyl}-4-hydroxy-3-methoxyphenylacetamide], the median effective dose (ED50) in series [1] (setting [4]) was 2.08 mg/kg. In series [2] (1.25 mg/kg), this compound showed a Convulsion of 0, a Salivation of 0, a Urination of 0 and a Dyspnoea of 4. In series [2] (1.25 mg/kg), the Ptosis came to 4, the Sedation came out at 4 and the Vasodilation was 4. Further, in series [2] (2.5 mg/kg), the Convulsion is on record as 0, the Salivation is listed as 0, the Urination turned out to be 0 and the Dyspnoea turned out to be 5. For the same compound, in series [2] (2.5 mg/kg), the Ptosis is 6, the Sedation turned out to be 6 and the Vasodilation is on record as 4. In series [2] (5 mg/kg), this compound came in with a Convulsion of 0, a Salivation of 0, a Urination of 0 and a Dyspnoea of 6. In series [2] (5 mg/kg), the Ptosis amounted to 7, the Sedation is reported as 7 and the Vasodilation was found to be 5.
In the case of `CCCCCCCC/C=C\CCCCCCCC(=O)NCc1ccc(OCCN)c(OC)c1` [NE-21610, reference compound], the figures for the ED50 in series [1] (setting [4]) and in series [3] (setting [5]) were over 300 mg/kg and 38.3 mg/kg, respectively.
`COc1cc(CC(=O)NCCOc2ccc(C)c(C)c2)ccc1OCCN` [Example 1, N-{2-(3,4-dimethylphenoxy)ethyl}-4-(2-aminoethoxy)-3-methoxyphenylacetamide]: the ED50 in series [3] (setting [5]) worked out at 9.53 mg/kg.
For `COc1cc(CC(=O)NCCOCc2ccc(C)c(C)c2)ccc1OCCN` [Example 3, N-{2-(3,4-dimethylbenzyloxy)ethyl}-4-(2-aminoethoxy)-3-methoxyphenylacetamide], in series [2] (5 mg/kg), the Convulsion is listed as 0, the Salivation was 0, the Urination is 0 and the Dyspnoea was determined as 4. In series [2] (5 mg/kg), this compound returned a Ptosis of 4, a Sedation of 4 and a Vasodilation of 4. In series [2] (10 mg/kg), this compound gave a Convulsion of 0, a Salivation of 0, a Urination of 0 and a Dyspnoea of 4. Besides, in series [2] (10 mg/kg), the Ptosis turned out to be 4, the Sedation is listed as 4 and the Vasodilation worked out at 4. Further, in series [2] (20 mg/kg), the Convulsion is 0, the Salivation is 0, the Urination came to 0 and the Dyspnoea worked out at 4. In series [2] (20 mg/kg), this compound registered a Ptosis of 5, a Sedation of 5 and a Vasodilation of 4. Also, the median effective dose (ED50) in series [3] (setting [5]) was determined as 10.9 mg/kg.
Regarding `COc1cc(CC(=O)NCCSc2ccc(C)c(C)c2)ccc1OCCN` [Example 6, N-{2-(3,4-dimethylthiophenoxy)ethyl}-4-(2-aminoethoxy)-3-methoxyphenylacetarnide], the 50% effective dose (ED50) in series [1] (setting [4]) worked out at 0.48 mg/kg. In addition, in series [2] (0.31 mg/kg), the Convulsion amounted to 0, the Salivation came to 0, the Urination worked out at 0 and the Dyspnoea is 4. In series [2] (0.31 mg/kg), this compound gave a Ptosis of 4, a Sedation of 4 and a Vasodilation of 4. In series [2] (0.63 mg/kg), this compound registered a Convulsion of 0, a Salivation of 0, a Urination of 0 and a Dyspnoea of 4. In series [2] (0.63 mg/kg), this compound gave a Ptosis of 5, a Sedation of 6 and a Vasodilation of 4. In series [2] (1.25 mg/kg), this compound returned a Convulsion of 0, a Salivation of 0, a Urination of 0 and a Dyspnoea of 6. In series [2] (1.25 mg/kg), this compound yielded a Ptosis of 6, a Sedation of 6 and a Vasodilation of 5.
In series [2] (2.5 mg/kg), `COc1cc(CC(=O)NCCCOc2ccc(C)c(C)c2)ccc1OCCN` [Example 2, N-{3-(3,4-dimethylphenoxy)propyl}-4-(2-aminoethoxy)-3-methoxyphenylacetamide] returned a Convulsion of 0, a Salivation of 0, a Urination of 0 and a Dyspnoea of 4. In series [2] (2.5 mg/kg), this compound yielded a Ptosis of 4, a Sedation of 4 and a Vasodilation of 4. Besides, in series [2] (5 mg/kg), the Convulsion came to 0, the Salivation was determined as 0, the Urination worked out at 0 and the Dyspnoea is 5. In addition, in series [2] (5 mg/kg), the Ptosis was 6, the Sedation was 6 and the Vasodilation is 5. In addition, in series [2] (10 mg/kg), the Convulsion turned out to be 0, the Salivation was 0, the Urination is recorded as 0 and the Dyspnoea is listed as 7. In addition, in series [2] (10 mg/kg), the Ptosis amounted to 6, the Sedation amounted to 7 and the Vasodilation is 6. Further, the ED50 in series [3] (setting [5]) amounted to 7.02 mg/kg.
With `CC(C)Cc1ccc(C(C)C(=O)O)cc1` (centres unmarked) [Ibuprofen], the ED50 in series [3] (setting [5]) was 11 mg/kg.
For the compound `COc1cc(CNC(=O)CCCC/C=C/C(C)C)ccc1O` [Capsaicin, N-vanillyl-trans-8-methyl-6-nonenamide, reference compound], in series [1], the ED50 was determined as 1.34 mg/kg.
In the case of `CCCCC1C(=O)N(c2ccccc2)N(c2ccccc2)C1=O` [Phenylbutazone], in series [3] (setting [5]), the 50% effective dose (ED50) came out at 79.8 mg/kg.
With `COc1cc(CC(=O)NCCCc2ccc(C)c(C)c2)ccc1OCCN` [Control, reference compound], in series [2] (0.25 mg/kg), the Convulsion was 1, the Salivation is listed as 0, the Urination is 0 and the Dyspnoea was 5. In series [2] (0.25 mg/kg), this compound gave a Ptosis of 6, a Sedation of 6 and a Vasodilation of 5. For the same compound, in series [2] (0.5 mg/kg), the Convulsion was 1, the Salivation worked out at 0, the Urination amounted to 0 and the Dyspnoea is 6. Also, in series [2] (0.5 mg/kg), the Ptosis is given as 7, the Sedation came to 7 and the Vasodilation is recorded as 5. In series [2] (1 mg/kg), this compound had a Convulsion of 1, a Salivation of 0, a Urination of 0 and a Dyspnoea of 6. Moreover, in series [2] (1 mg/kg), the Ptosis was determined as 7, the Sedation turned out to be 7 and the Vasodilation was determined as 6.
Take `COc1ccc2cc([C@H](C)C(=O)O)ccc2c1` [Naproxen]: in series [3] (setting [5]), the median effective dose (ED50) is 17.1 mg/kg.
The compound `CCCCCCCC/C=C\CCCCCCCC(=O)NCc1ccc(O)c(OC)c1` [NE-19550, Nvanillyloleamide, reference compound] gave an ED50 in series [1] of 15.7 mg/kg.
